Experimental findings from patent EP4778922A1, “BICYCLIC COMPOUND, AND PREPARATION METHOD THEREFOR AND PHARMACEUTICAL USE THEREOF” (Shanghai Jeyou Pharmaceutical Co., Ltd., priority 2023, dated 2025) are described below.

The subject of the test is 22RV1 cells. The experiment in a line: Cell proliferation inhibition assay in 22RV1 cells (CellTiter-Glo, 7 days). It is filed as cell-based, human. To be noted: Homo sapiens. Here is the method:
• 1. The human prostate cancer cell lines 22RV1 and LNCaP were purchased from ATCC. […] The cell concentration was adjusted to an appropriate concentration (determined based on the results of cell density optimization experiments), and the cells were seeded into a 96-well plate. A 100 µL cell suspension was added, resulting in 3000 cells per well. […] On the second day, for 22Rv1 cells, test compounds at different concentrations were added, and the cells were incubated at 37°C in a 5% CO2 incubator for 7 days; for LNCaP cells, test compounds at different concentrations were added first, and after 1 hour of treatment, 0.2 nM DHT was added. The cells were then incubated at 37°C in a 5% CO2 incubator for 7 days. • 4. After the incubation period, a volume of CellTiter-Glo detection reagent equal to the volume of the culture medium was added to each well. The plate was shaken and mixed thoroughly for 5 minutes, then incubated at room temperature for 10 minutes. Readings were taken using a PerkinElmer EnVision microplate reader. • 5.
The IC50 curve was fitted and the IC50 value was calculated using the software GraphPad Prism 8 with the calculation formula XY-analysis/Nonlinear regression (curve fit)/Dose response-Inhibition/log (inhibitor) vs. response-Variable slope (four parameters).
Background: ATP-based viability assays read luminescence as a measure of living cells.

The IC50 is the concentration at which inhibition is half-maximal. Read a low IC50 as higher potency. Where the note is “168 h”, `CC(C)(c1ccc(-c2ccc(/C=C\c3cnc(P(C)(C)=O)nc3)c(C#N)c2)cc1)c1cc(Cl)c(OCCCl)c(C#N)c1` [Compound 269] had an IC50 of 390 nM.

As for `CC(C)(c1ccc(-c2ccc(OCC3CC(CN4CCS(=O)(=O)CC4)C3)cc2)cc1)c1cc(Cl)c(OCCCl)c(C#N)c1` (stereo not drawn) [Compound 296], where the note is “168 h”, 480 nM corresponded to half-maximal inhibition (IC50).

For the molecule `CC(C)(c1ccc(-c2ccc(OCc3ccnc(N4CC5(CNC5)C4)n3)cc2)cc1)c1cc(Cl)c(OCCCl)c(C#N)c1` [Compound 104], the 50% inhibitory concentration (IC50) (168 h) is 920 nM. This IC50 is about 1.9-fold higher than that of the molecule before.

Consider `CNC1CN(c2nccc(COc3ccc(-c4ccc(C(C)(C)c5cc(Cl)c(OCCCl)c(C#N)c5)cc4)cc3)n2)C1` [Compound 314], for which the midpoint of inhibition (168 h), the IC50, lay at 1140 nM.

With `CN(C1CN(c2nccc(COc3ccc(-c4ccc(C(C)(C)c5cc(Cl)c(OCCCl)c(C#N)c5)cc4)cc3)n2)C1)S(C)(=O)=O` [Compound 93], the IC50 (168 h) amounted to 1010 nM.

In the case of `CC(C)(c1ccc(-c2ccc(OCCN3CCS(=N)(=O)CC3)cc2)cc1)c1cc(Cl)c(OCCCl)c(C#N)c1` [Compound 324], the IC50 (168 h) stood at 300 nM.

As for `CC(C)(c1ccc(-c2ccc(OCC3CC(CN4CC5(CCS(=O)(=O)CC5)C4)C3)cc2)cc1)c1cc(Cl)c(OCCCl)c(C#N)c1` (stereo not drawn) [Compound 303], the IC50 (168 h) was found to be 490 nM.

Molecule `CC(C)(c1ccc(-c2ccc(OCC3CN(C4CC4)C3)cc2)cc1)c1cc(Cl)c(OCCCl)c(C#N)c1` [Compound 172] showed an IC50 (168 h) of 1230 nM.

Take `CC(C)(c1ccc(-c2ccc(OCc3ccnc(N4CC5COCC5C4)n3)cc2)cc1)c1cc(Cl)c(OCCCl)c(C#N)c1` (stereo not drawn) [Compound 199]: half-maximal inhibition (168 h) (IC50) was put at 1010 nM.

`CC(C)(c1ccc(-c2ccc(Oc3ccnc(P(C)(C)=O)n3)nc2)cc1)c1cc(Cl)c(OCCCl)c(C#N)c1` [Compound 326] showed an IC50 (168 h) of 980 nM.

For `CC(C)(c1ccc(-c2ccc(OCc3ccnc(N4CC5(CC(O)C5)C4)n3)cc2)cc1)c1cc(Cl)c(OCCCl)c(C#N)c1` [Compound 165], where the note is “168 h”, the IC50 came to 390 nM.

Consider `CC(C)(c1ccc(-c2ccc(OCCOc3nccc(N=S4(=O)CCOCC4)n3)cc2)cc1)c1cc(Cl)c(OCCCl)c(C#N)c1` [Compound 205], for which, where the note is “168 h”, the IC50 turned out to be 430 nM.

Turning to `CC(C)(c1ccc(-c2ccc(OCCOc3nccc(P(C)(C)=O)n3)cc2)cc1)c1cc(Cl)c(OCCCl)c(C#N)c1` [Compound 330], the midpoint of inhibition (168 h), the IC50, lay at 280 nM.

In turn, `CNC(=O)CN1CCS(=O)(=Nc2nccc(COc3ccc(-c4ccc(C(C)(C)c5cc(Cl)c(OCCCl)c(C#N)c5)cc4)cc3)n2)CC1` [Compound 255] gave an IC50 (168 h) of 560 nM.

For `C[C@@H](Cl)COc1c(Cl)cc(C(C)(C)c2ccc(-c3ccc(OCc4ccnc(P(C)(C)=O)n4)cc3)cc2)cc1C#N` [Compound 313], the IC50 (168 h) is 890 nM.

On to `CC(C)(c1ccc(-c2ccc(OCc3ccc(-c4cnc(P(C)(C)=O)nc4)cc3)cn2)cc1)c1cc(Cl)c(OCCCl)c(C#N)c1` [Compound 275], for which the IC50 (168 h) amounted to 460 nM.

`COC1CC2(C1)CN(c1nccc(COc3ccc(-c4ccc(C(C)(C)c5cc(Cl)c(OCCCl)c(C#N)c5)cc4)cc3)n1)C2` [Compound 166] came in with an IC50 (168 h) of 1210 nM. Against the preceding molecule, the IC50 is about 2.6-fold higher.

The molecule `CC(C)(c1ccc(-c2ccc(OCc3ccnc(N4CC(S(=N)(=O)C5CC5)C4)n3)cc2)cc1)c1cc(Cl)c(OCCCl)c(C#N)c1` (racemic) [Compound 295] yielded an IC50 (22Rv1, 168 h) of 330 nM.
